According to patent publication US20260007629A1, “DIETARY BUTYRATE AND ITS USES” (SOCIETE DES PRODUITS NESTLE S.A., priority 2019, published 2026):

Legend:
[1] = molecular target: T1, porcine pancreatic lipase (PPL) (Sus scrofa, UniProt P00591); settings: pig, 3 h, pH 11.5
T1 sequence (P00591 1-450): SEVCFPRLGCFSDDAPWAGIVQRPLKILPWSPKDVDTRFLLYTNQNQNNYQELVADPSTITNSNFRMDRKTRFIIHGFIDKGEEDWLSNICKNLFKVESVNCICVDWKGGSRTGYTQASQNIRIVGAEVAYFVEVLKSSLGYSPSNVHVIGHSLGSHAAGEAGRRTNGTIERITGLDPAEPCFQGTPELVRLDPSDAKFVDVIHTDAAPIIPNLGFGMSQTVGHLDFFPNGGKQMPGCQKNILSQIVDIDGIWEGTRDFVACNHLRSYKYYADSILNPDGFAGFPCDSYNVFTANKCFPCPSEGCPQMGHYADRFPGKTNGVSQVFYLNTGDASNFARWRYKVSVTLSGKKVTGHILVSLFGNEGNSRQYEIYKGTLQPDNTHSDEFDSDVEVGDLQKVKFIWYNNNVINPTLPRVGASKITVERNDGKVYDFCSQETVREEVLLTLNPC
T1 sequence (P02703 23-112 partner): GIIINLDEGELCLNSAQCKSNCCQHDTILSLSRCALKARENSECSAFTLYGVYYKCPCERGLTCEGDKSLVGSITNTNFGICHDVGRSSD
Text: Because many fatty acids are only partially ionised at pH 6.8, direct titration gives only partial picture of the extent of lipid digestion, instead back titration to pH 11.5 or GC-FAME analysis is required to estimate the full extent of digestion.

[2] = molecular target: T1, porcine pancreatic lipase (PPL); experiment: In vitro digestion, simulated intestinal fluid (SIF) model, pH-stat; format: in vitro ADME; design: by porcine pancreatic lipase (from pancreatin); purchased SIGMA-ALDRICH P7585; host or cells: porcine pancreas extract (pancreatin); settings: SIF alone; emulsion with 200 mg fat, pH 6.8, 37° C.
Description: (§1) 10 wt % oil in water emulsions stabilised by 0.3 wt % polyoxyethylene sorbitan mono-oleate (Tween® 80) were prepared by mixing the Tween 80 into the oil phase at 40° C., then mixing with the water phase using a magnetic stirrer.
(§2) The lipid emulsion (2 mL) containing 200 mg of fat was subjected to gastrointestinal in vitro lipolysis. […] For gastric digestion, the sample was incubated for 90 minutes with 8.5 mL of simulated gastric fluid (SGF), which consisted of 150 mM NaCl, 450 U/mL pepsin, 18 U/mL rabbit gastric lipase at 37° C. and a pH of 5.5.
The intestinal digestion step was performed in the pH stat where the pH was kept constant at 6.8 by addition of NaOH (0.05 M). […] The intestinal digestion step starts when the temperature reaches 37±0.5° C. […] During the intestinal phase of digestion, the kinetics of digestion were followed using a pH-stat (TIM856, RADIOMETER®) technique and expressed as titratable acid (rather than fatty acid) that was calculated by the equation: […]
(§3) Since the digestion of dietary lipids involves lipases of both gastric and intestinal origin, lipid digestibility was assessed using two digestion models i) simulated intestinal fluid (SIF) with porcine pancreatic lipase (PPL) and ii) sequential digestion in simulated gastric fluid (SGF) with rabbit gastric lipase (RGL) followed by simulated intestinal fluid (SIF) with porcine pancreatic lipase (PPL).

[3] = test system: rabbit gastric lipase (RGL) followed by porcine pancreatic lipase (PPL); experiment: In vitro sequential digestion, SGF followed by SIF, pH-stat; format: in vitro ADME
Description: as §1, §2
The intestinal digestion step was performed in the pH stat where the pH was kept constant at 6.8 by addition of NaOH (0.05 M). […] The intestinal digestion step starts when the temperature reaches 37±0.5° C. The pH was adjusted to pH 6.8 and after incubation of two minutes at this pH and temperature, a pancreatin solution (5 mM tris, 150 mM NaCl at pH 6.8) was added. The final composition of the intestinal fluid was 10 mM CaCl2, 2 mM mixed bile salts, 0.75 mM phospholipid, 150 mM NaCl and 4 mM tris (hydroxymethyl) aminomethane buffer. The intestinal digestion step was carried out for 3 hours in a titration manager from RADIOMETER®. During the intestinal phase of digestion, the kinetics of digestion were followed using a pH-stat (TIM856, RADIOMETER®) technique and expressed as titratable acid (rather than fatty acid) that was calculated by the equation:
TA: Total titratable acid released, mmol; VNaOH: volume of NaOH used to titrate the released acid in 3 h, mL.
as §3

CCCC(=O)OCC(COC(=O)CCC)OC(=O)CCC [tributyrin]
extent of digestion [1]: 101.5±0.9%
initial (maximal) rate of lipolysis [2]: 223 ± 59 µmol/min
initial lipolysis rate in SIF compartment ([3]; SGF-SIF digestion (90 min SGF pre-exposure, pH 5.5)): 44.1 ± 8.8 µmol/min
hydrolysis in the stomach / extent of gastric lipolysis ([3]; in words, gastric compartment of the model): extensive hydrolysis in the stomach
lipolysis by gastric lipase ([3]; indicated by decreased total fatty acid release in SIF after RGL pre-exposure): ~60%
